Test results from the NIST ThermoML archive (doi:10.1021/je100598x).
Numbers after ± are expanded uncertainties.

Assay: cn = amount concentration of the nth substance listed, in mol/dm3
Conditions: 101 kPa, Liquid, Direct current cell with electrodes

CCCCCCCCCCCC[N+](C)(C)C.[Br-] [dodecyltrimethylammonium bromide] + O
electrical conductivity [S/m]
Conditions	288.15 K	293.15 K	298.15 K	303.15 K	308.15 K	313.15 K	318.15 K
c1 = 0.001961	0.0157 ± 0.00016	0.0175 ± 0.00018	0.0196 ± 0.0002	0.0218 ± 0.0002	0.0238 ± 0.0002	0.0261 ± 0.0003	0.0279 ± 0.0003
c1 = 0.003846	0.0294 ± 0.0003	0.0332 ± 0.0003	0.0372 ± 0.0004	0.0411 ± 0.0004	0.045 ± 0.0005	0.0494 ± 0.0005	0.0531 ± 0.0005
c1 = 0.00566	0.0421 ± 0.0004	0.0478 ± 0.0005	0.0533 ± 0.0005	0.0592 ± 0.0006	0.0647 ± 0.0006	0.0711 ± 0.0007	0.076 ± 0.0008
c1 = 0.007407	0.0542 ± 0.0005	0.0614 ± 0.0006	0.0689 ± 0.0007	0.0762 ± 0.0008	0.0833 ± 0.0008	0.0914 ± 0.0009	0.0969 ± 0.001
c1 = 0.009091	0.0654 ± 0.0007	0.0743 ± 0.0007	0.0833 ± 0.0008	0.0921 ± 0.0009	0.1007 ± 0.001	0.1109 ± 0.0011	0.119 ± 0.0012
c1 = 0.01071	0.0762 ± 0.0008	0.0865 ± 0.0009	0.0964 ± 0.001	0.107 ± 0.0011	0.117 ± 0.0012	0.129 ± 0.0013	0.139 ± 0.0014
c1 = 0.01228	0.0863 ± 0.0009	0.098 ± 0.001	0.11 ± 0.0011	0.1218 ± 0.0012	0.1328 ± 0.0013	0.146 ± 0.0015	0.158 ± 0.0016
c1 = 0.01379	0.0954 ± 0.001	0.109 ± 0.0011	0.1222 ± 0.0012	0.136 ± 0.0014	0.148 ± 0.0015	0.1623 ± 0.0016	0.175 ± 0.0018
c1 = 0.01525	0.105 ± 0.0011	0.119 ± 0.0012	0.1337 ± 0.0013	0.148 ± 0.0015	0.162 ± 0.0016	0.178 ± 0.0018	0.1919 ± 0.0019
c1 = 0.01667	0.1103 ± 0.0011	0.125 ± 0.0013	0.1405 ± 0.0014	0.157 ± 0.0016	0.1727 ± 0.0017	0.1907 ± 0.0019	0.206 ± 0.0021
c1 = 0.01758	0.1125 ± 0.0011	0.128 ± 0.0013	0.1433 ± 0.0014	0.1605 ± 0.0016	0.177 ± 0.0018	0.197 ± 0.002	0.215 ± 0.0022
c1 = 0.01848	0.1143 ± 0.0011	0.13 ± 0.0013	0.146 ± 0.0015	0.1634 ± 0.0016	0.1807 ± 0.0018	0.201 ± 0.002	0.222 ± 0.0022
c1 = 0.01936	0.116 ± 0.0012	0.1315 ± 0.0013	0.148 ± 0.0015	0.166 ± 0.0017	0.1837 ± 0.0018	0.205 ± 0.0021	0.226 ± 0.0023
c1 = 0.02021	0.117 ± 0.0012	0.1332 ± 0.0013	0.1501 ± 0.0015	0.168 ± 0.0017	0.187 ± 0.0019	0.209 ± 0.0021	0.23 ± 0.0023
c1 = 0.02105	0.119 ± 0.0012	0.135 ± 0.0014	0.1521 ± 0.0015	0.17 ± 0.0017	0.19 ± 0.0019	0.212 ± 0.0021	0.234 ± 0.0023
c1 = 0.02188	0.1203 ± 0.0012	0.137 ± 0.0014	0.154 ± 0.0015	0.172 ± 0.0017	0.1922 ± 0.0019	0.215 ± 0.0022	0.238 ± 0.0024
c1 = 0.02268	0.1216 ± 0.0012	0.138 ± 0.0014	0.156 ± 0.0016	0.1741 ± 0.0017	0.195 ± 0.002	0.218 ± 0.0022	0.242 ± 0.0024
c1 = 0.02347	0.1229 ± 0.0012	0.14 ± 0.0014	0.158 ± 0.0016	0.176 ± 0.0018	0.198 ± 0.002	0.22 ± 0.0022	0.246 ± 0.0025
c1 = 0.02424	0.1242 ± 0.0012	0.1411 ± 0.0014	0.159 ± 0.0016	0.178 ± 0.0018	0.2 ± 0.002	0.223 ± 0.0022	0.249 ± 0.0025
c1 = 0.025	0.126 ± 0.0013	0.1425 ± 0.0014	0.161 ± 0.0016	0.1805 ± 0.0018	0.203 ± 0.002	0.226 ± 0.0023	0.252 ± 0.0025
c1 = 0.02611	0.127 ± 0.0013	0.145 ± 0.0015	0.1636 ± 0.0016	0.1831 ± 0.0018	0.206 ± 0.0021	0.23 ± 0.0023	0.258 ± 0.0026
c1 = 0.02718	0.129 ± 0.0013	0.147 ± 0.0015	0.166 ± 0.0017	0.186 ± 0.0019	0.21 ± 0.0021	0.234 ± 0.0023	0.263 ± 0.0026
c1 = 0.02823	0.131 ± 0.0013	0.149 ± 0.0015	0.169 ± 0.0017	0.189 ± 0.0019	0.213 ± 0.0021	0.238 ± 0.0024	0.268 ± 0.0027
c1 = 0.02925	0.1327 ± 0.0013	0.151 ± 0.0015	0.171 ± 0.0017	0.1912 ± 0.0019	0.217 ± 0.0022	0.242 ± 0.0024	0.272 ± 0.0027
c1 = 0.03023	0.1344 ± 0.0013	0.1529 ± 0.0015	0.1733 ± 0.0017	0.1937 ± 0.0019	0.22 ± 0.0022	0.246 ± 0.0025	0.277 ± 0.0028

CCCCCCCCCCCC[N+](CCC)(CCC)CCC.[Br-] [dodecyltripropylammonium bromide] + O
electrical conductivity [S/m]
Conditions	288.15 K	293.15 K	298.15 K	303.15 K	308.15 K	313.15 K	318.15 K
c1 = 0.001055	0.00819 ± 8.2e-05	0.00909 ± 9.1e-05	0.01006 ± 0.0001	0.01131 ± 0.00011	0.01244 ± 0.00012	0.0137 ± 0.00014	0.0147 ± 0.00015
c1 = 0.002089	0.0153 ± 0.0002	0.01734 ± 0.00017	0.01942 ± 0.00019	0.0217 ± 0.0002	0.0238 ± 0.0002	0.0261 ± 0.0003	0.0282 ± 0.0003
c1 = 0.003101	0.0222 ± 0.0002	0.025 ± 0.0003	0.0282 ± 0.0003	0.0316 ± 0.0003	0.0345 ± 0.0003	0.038 ± 0.0004	0.0412 ± 0.0004
c1 = 0.004092	0.0285 ± 0.0003	0.0326 ± 0.0003	0.0367 ± 0.0004	0.041 ± 0.0004	0.0449 ± 0.0005	0.0496 ± 0.0005	0.0538 ± 0.0005
c1 = 0.005063	0.0346 ± 0.0004	0.0398 ± 0.0004	0.0448 ± 0.0005	0.0501 ± 0.0005	0.0546 ± 0.0005	0.0605 ± 0.0006	0.0657 ± 0.0007
c1 = 0.006015	0.0405 ± 0.0004	0.0467 ± 0.0005	0.0527 ± 0.0005	0.059 ± 0.0006	0.0643 ± 0.0006	0.0712 ± 0.0007	0.0774 ± 0.0008
c1 = 0.006948	0.0461 ± 0.0005	0.0533 ± 0.0005	0.0599 ± 0.0006	0.0675 ± 0.0007	0.0741 ± 0.0007	0.0816 ± 0.0008	0.0886 ± 0.0009
c1 = 0.007862	0.0516 ± 0.0005	0.0594 ± 0.0006	0.0674 ± 0.0007	0.0757 ± 0.0008	0.083 ± 0.0008	0.0912 ± 0.0009	0.0991 ± 0.001
c1 = 0.008759	0.0566 ± 0.0006	0.0658 ± 0.0007	0.0743 ± 0.0007	0.0832 ± 0.0008	0.0913 ± 0.0009	0.1001 ± 0.001	0.109 ± 0.0011
c1 = 0.009639	0.0619 ± 0.0006	0.0714 ± 0.0007	0.0804 ± 0.0008	0.0896 ± 0.0009	0.0982 ± 0.001	0.108 ± 0.0011	0.117 ± 0.0012
c1 = 0.0105	0.0661 ± 0.0007	0.0761 ± 0.0008	0.0846 ± 0.0008	0.0945 ± 0.0009	0.1035 ± 0.001	0.1136 ± 0.0011	0.1242 ± 0.0012
c1 = 0.01135	0.0702 ± 0.0007	0.0797 ± 0.0008	0.0883 ± 0.0009	0.0984 ± 0.001	0.108 ± 0.0011	0.118 ± 0.0012	0.13 ± 0.0013
c1 = 0.01218	0.0731 ± 0.0007	0.0825 ± 0.0008	0.0919 ± 0.0009	0.1018 ± 0.001	0.1117 ± 0.0011	0.1228 ± 0.0012	0.1348 ± 0.0013
c1 = 0.01319	0.0759 ± 0.0008	0.0851 ± 0.0009	0.0953 ± 0.001	0.106 ± 0.0011	0.116 ± 0.0012	0.128 ± 0.0013	0.1405 ± 0.0014
c1 = 0.01419	0.0783 ± 0.0008	0.0883 ± 0.0009	0.0985 ± 0.001	0.109 ± 0.0011	0.1203 ± 0.0012	0.1325 ± 0.0013	0.146 ± 0.0015
c1 = 0.01516	0.0806 ± 0.0008	0.0906 ± 0.0009	0.1015 ± 0.001	0.1128 ± 0.0011	0.1242 ± 0.0012	0.137 ± 0.0014	0.1512 ± 0.0015
c1 = 0.01657	0.0837 ± 0.0008	0.0942 ± 0.0009	0.106 ± 0.0011	0.118 ± 0.0012	0.13 ± 0.0013	0.1433 ± 0.0014	0.157 ± 0.0016
c1 = 0.01794	0.0866 ± 0.0009	0.0976 ± 0.001	0.11 ± 0.0011	0.1224 ± 0.0012	0.135 ± 0.0014	0.149 ± 0.0015	0.165 ± 0.0017
c1 = 0.01927	0.0895 ± 0.0009	0.1009 ± 0.001	0.1137 ± 0.0011	0.127 ± 0.0013	0.1404 ± 0.0014	0.155 ± 0.0016	0.1719 ± 0.0017
c1 = 0.02055	0.0921 ± 0.0009	0.1041 ± 0.001	0.117 ± 0.0012	0.1312 ± 0.0013	0.145 ± 0.0015	0.161 ± 0.0016	0.178 ± 0.0018
c1 = 0.02179	0.0947 ± 0.0009	0.107 ± 0.0011	0.1211 ± 0.0012	0.135 ± 0.0014	0.15 ± 0.0015	0.166 ± 0.0017	0.1843 ± 0.0018
c1 = 0.023	0.0973 ± 0.001	0.1101 ± 0.0011	0.1245 ± 0.0012	0.139 ± 0.0014	0.1545 ± 0.0015	0.1709 ± 0.0017	0.1906 ± 0.0019
c1 = 0.02417	0.0996 ± 0.001	0.113 ± 0.0011	0.128 ± 0.0013	0.1433 ± 0.0014	0.159 ± 0.0016	0.175 ± 0.0018	0.196 ± 0.002
